Laboratory results published in patent publication EP2380597A1, “Cyclopeptide derivatives and uses thereof” (Technische Universität München, priority 2010, dated 2011).
*1 amine or outer side, *2 acyl side, *3 side chain or, on linkers, in order; H or OH if unused. Where a SMILES comes first, the peptide text is derived from it. Bridges are numbered along the chain shown (N, C = ends). Roman numbers before positions name the chains, in order. [ ]: non-standard residue; d: D form. The star is where a group is joined. dAla(N-(6-guanidinohexyl)) = C[C@@H](NCCCCCCNC(=N)N)C(=O)O; DOTA = O=C(O)CN1CCN(CC(=O)O)CCN(CC(=O)*)CCN(CC(=O)O)CC1; X6 = C[C@H](C(=O)[*:2])N(CCCCCCCNC(=O)c1ccc(F)cc1)[*:1]; X14 = C[C@H](C(=O)[*:2])N(CCCCCNC(=O)c1ccc(F)cc1)[*:1]; X8 = C[C@H](C(=O)[*:2])N(CCCCCCNC(=O)c1ccc(F)cc1)[*:1]; X5 = C[C@H](C(=O)[*:2])N(CCCCCCNCc1cccc2ccccc12)[*:1]; X9 = C[C@H](C(=O)[*:2])N(CCCCNC(=O)c1ccc(F)cc1)[*:1]; X4 = C[C@H](C(=O)[*:2])N(CCCCCCNCc1ccccc1)[*:1]; X1 = C[C@@H](C(=O)[*:2])N(CCCCCCNC(=N)N)[*:1]; X7 = CC(=O)NCCCCCCN([C@H](C)C(=O)[*:2])[*:1]; X3 = C[C@H](C(=O)[*:2])N(CCCCCCN[*:3])[*:1]; X10 = C[C@@H](C(=O)[*:2])N(CCCCCCN)[*:1]; X12 = C[C@H](C(=O)[*:2])N(CCCCCCN)[*:1]; X2 = C[C@H](C(=O)[*:2])N(CCCCCCCN)[*:1]; X13 = C[C@H](C(=O)[*:2])N(CCCCCN)[*:1]; 2Nal = N[C@@H](Cc1ccc2ccccc2c1)C(=O)O; Suberoyl = O=C(CCCCCCC(=O)[*:2])[*:1]; X11 = C[C@H](C(=O)[*:2])N(CCCCN)[*:1]; Adipoyl = O=C(CCCCC(=O)[*:2])[*:1]; Gly(N-(CH2)6NH2) = NCCCCCCNCC(=O)O; Suc = O=C(CCC(=O)[*:2])[*:1]

Biological target: T1, CXCR4 receptor (Homo sapiens, UniProt P61073)
T1 construct: endogenous in cells; host or cells: Jurkat cells
Assay: Receptor binding assay (competition with 125I tracer on Jurkat cells)
Conditions: tracer cyclo(-D-Tyr^1 [^125I]-Arg^2-Arg^3-Nal^4-Gly^5), 2 h at room temperature
Procedure: For receptor binding assays cells were resuspended in PBS/0.2 % BSA. A total of 200 µl of the suspension containing 400,000 Jurkat cells were incubated with 25 µl of the tracer solution (containing 100000cpm / 25µl, approx. 0.1 nM) and 25 µl of the diluent or the competitor at different concentrations. For determination of IC50 values, cyclo(-D-Tyr^1 [^125I]-Arg^2-Arg^3-Nal^4-Gly^5) was used as a tracer. Nonspecific binding was determined in the presence of 1 µM cold cyclo(-D-Tyr^1[^127I]-Arg^2-Arg^3-Nal^4-Gly^5). After shaking for 2 h at room temperature, the incubation was terminated by centrifugation at 2000 rpm for 5 min. Cell pellets were washed once with 400µl cold PBS followed by a second centrifugation step. Cell bound radioactivity was determined by using a gamma counter. Experiments were repeated 2-3 times in triplicates. IC50 values of the compounds were calculated by nonlinear regression using GraphPad Prism (GraphPad Prism 4.0 Software, Inc., San Diego, CA, USA). Each data point is the average of three determinations.

T1 sequence (P61073 whole entry): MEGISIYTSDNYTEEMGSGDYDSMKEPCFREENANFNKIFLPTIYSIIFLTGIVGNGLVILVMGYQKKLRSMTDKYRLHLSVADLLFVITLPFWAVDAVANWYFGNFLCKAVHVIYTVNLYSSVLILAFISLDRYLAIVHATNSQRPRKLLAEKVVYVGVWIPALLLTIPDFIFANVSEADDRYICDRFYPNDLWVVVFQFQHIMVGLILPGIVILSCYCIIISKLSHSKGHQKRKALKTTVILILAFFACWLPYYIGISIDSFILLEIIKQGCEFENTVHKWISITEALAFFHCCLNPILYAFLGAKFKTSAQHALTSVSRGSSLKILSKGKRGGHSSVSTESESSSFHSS

IC50 (D-Ala N-hexyl series, R varied) [nM] | IC50 (alkyl chain length n varied) [nM] | SMILES | other results
44.1 ± 6.2 |  | CC(=O)NCCCCCCN1C(=O)[C@@H](Cc2ccc(O)cc2)NC(=O)CNC(=O)[C@H](Cc2ccc3ccccc3c2)NC(=O)[C@H](CCCNC(=N)N)NC(=O)[C@H]1C [ya(Hex,Ac) RNalG, cyclo(-D-Tyr-(α-6-aminohexyl, Ac)-D-Ala-R-Nal-G)] (cyclo([2Nal]G[dY][X7]R)) | 
5.1 ± 1.3 |  | C[C@@H]1C(=O)N[C@@H](CCCNC(=N)N)C(=O)N[C@@H](Cc2ccc3ccccc3c2)C(=O)NCC(=O)N[C@H](Cc2ccc(O)cc2)C(=O)N1CCCCCCNCc1cccc2ccccc12 [ya(Hex,1 Nap) RNalG, cyclo(-D-Tyr-(α-6-aminohexyl,1-naphthylmethyl)-D-Ala-R-Nal-G)] (cyclo([2Nal]G[dY][X5]R)) | 
 |  | C[C@@H]1C(=O)N[C@@H](CCCNC(=N)N)C(=O)N[C@@H](Cc2ccc3ccccc3c2)C(=O)NCC(=O)N[C@H](Cc2ccc(O)cc2)C(=O)N1CCCCCCNC(=O)CCCCC(=O)NCCCCCCN1C(=O)[C@@H](Cc2ccc(O)cc2)NC(=O)CNC(=O)[C@H](Cc2ccc3ccccc3c2)NC(=O)[C@H](CCCNC(=N)N)NC(=O)[C@H]1C [Dimer 6, ya(Hex)RNalG hexan-1,6-diacid dimer] (I: cyclo([2Nal]G[dY][X3]R) / II: cyclo([2Nal]G[dY][X3]R); linker I:4-II:4 via Adipoyl) | IC50 (dimers): 7.8 ± 3.1 nM
0.3 ± 0.2 |  | C[C@@H]1C(=O)N[C@@H](CCCNC(=N)N)C(=O)N[C@@H](Cc2ccc3ccccc3c2)C(=O)NCC(=O)N[C@H](Cc2ccc(O)cc2)C(=O)N1CCCCCCN [ya(Hex)RNalG] (cyclo([2Nal]G[dY][X12]R)) | 
 | 1.6 ± 0.3 | C[C@@H]1C(=O)N[C@@H](CCCNC(=N)N)C(=O)N[C@@H](Cc2ccc3ccccc3c2)C(=O)NCC(=O)N[C@H](Cc2ccc(O)cc2)C(=O)N1CCCCCN [ya(Pent)RNalG, cyclo(-D-Tyr-(α-5-aminopentyl)-D-Ala-R-Nal-G)] (cyclo([2Nal]G[dY][X13]R)) | 
509.7 ± 0.2 |  | C[C@@H]1C(=O)N[C@@H](CCCNC(=N)N)C(=O)N[C@@H](Cc2ccc3ccccc3c2)C(=O)NCC(=O)N[C@H](Cc2ccc(O)cc2)C(=O)N1CCCCCCNC(=O)CN1CCN(CC(=O)O)CCN(CC(=O)O)CCN(CC(=O)O)CC1 [ya(Hex,DOTA) RNalG, cyclo(-D-Tyr-(α-6-aminohexyl, DOTA)-D-Ala-R-Nal-G)] (cyclo([2Nal]G[dY][X3](DOTA)R)) | 
 |  | C[C@H]1C(=O)N[C@@H](CCCNC(=N)N)C(=O)N[C@@H](Cc2ccc3ccccc3c2)C(=O)NCC(=O)N[C@H](Cc2ccc(O)cc2)C(=O)N1CCCCCCN [yA(Hex)RNalG] (cyclo([2Nal]G[dY][X10]R)) | IC50 (L-Ala series): 94.2 ± 38 nM
 | 26 ± 5.7 | C[C@@H]1C(=O)N[C@@H](CCCNC(=N)N)C(=O)N[C@@H](Cc2ccc3ccccc3c2)C(=O)NCC(=O)N[C@H](Cc2ccc(O)cc2)C(=O)N1CCCCNC(=O)c1ccc(F)cc1 [ya(But,FBz)RNalG, cyclo(-D-Tyr-(α-4-aminobutyl, 4-fluorobenzoic acid)-D-Ala-R-Nal-G)] (cyclo([2Nal]G[dY][X9]R)) | 
 |  | C[C@@H]1C(=O)N[C@@H](CCCNC(=N)N)C(=O)N[C@@H](Cc2ccc3ccccc3c2)C(=O)NCC(=O)N[C@H](Cc2ccc(O)cc2)C(=O)N1CCCCCCNC(=O)CCCCCCC(=O)NCCCCCCN1C(=O)[C@@H](Cc2ccc(O)cc2)NC(=O)CNC(=O)[C@H](Cc2ccc3ccccc3c2)NC(=O)[C@H](CCCNC(=N)N)NC(=O)[C@H]1C [Dimer 8, ya(Hex)RNalG octan-1,8-diacid dimer] (I: cyclo([2Nal]G[dY][X3]R) / II: cyclo([2Nal]G[dY][X3]R); linker I:4-II:4 via Suberoyl) | IC50 (dimers): 15.9 ± 10.6 nM
 |  | C[C@H]1C(=O)N[C@@H](CCCNC(=N)N)C(=O)N[C@@H](Cc2ccc3ccccc3c2)C(=O)NCC(=O)N[C@H](Cc2ccc(O)cc2)C(=O)N1CCCCCCNC(=N)N [yA(Hex,Gua)RNa IG, cyclo(-D-Tyr-(α-6-guanidinohexyl)-L-Ala-R-Nal-G)] (cyclo([2Nal]G[dY][X1]R)) | IC50 (L-Ala series): 4.4 ± 0.3 nM
0.04 ± 0.02 |  | C[C@@H]1C(=O)N[C@@H](CCCNC(=N)N)C(=O)N[C@@H](Cc2ccc3ccccc3c2)C(=O)NCC(=O)N[C@H](Cc2ccc(O)cc2)C(=O)N1CCCCCCNC(=N)N [ya(Hex, Gua) RNalG, cyclo(-D-Tyr-(α-6-guanidinohexyl)-D-Ala-R-Nal-G)] (cyclo([dY][dAla(N-(6-guanidinohexyl))]R[2Nal]G)) | 
 | 2.4 ± 0.8 | C[C@@H]1C(=O)N[C@@H](CCCNC(=N)N)C(=O)N[C@@H](Cc2ccc3ccccc3c2)C(=O)NCC(=O)N[C@H](Cc2ccc(O)cc2)C(=O)N1CCCCCCCN [ya(Hept)RNalG, cyclo(-D-Tyr-(α-7-aminoheptyl)-D-Ala-R-Nal-G)] (cyclo([2Nal]G[dY][X2]R)) | 
 | 16.5 ± 3.1 | C[C@@H]1C(=O)N[C@@H](CCCNC(=N)N)C(=O)N[C@@H](Cc2ccc3ccccc3c2)C(=O)NCC(=O)N[C@H](Cc2ccc(O)cc2)C(=O)N1CCCCCCCNC(=O)c1ccc(F)cc1 [ya(Hept,FBz)RNalG, cyclo(-D-Tyr-(α-7-aminoheptyl, 4-fluorobenzoic acid)-D-Ala-R-Nal-G)] (cyclo([dY][X6]R[2Nal]G)) | 
 |  | N=C(N)NCCC[C@@H]1NC(=O)CN(CCCCCCN)C(=O)[C@@H](Cc2ccc(O)cc2)NC(=O)CNC(=O)[C@H](Cc2ccc3ccccc3c2)NC1=O [yG(Hex)RNalG, cyclo(-D-Tyr-(α-6-aminohexyl)-G-R-Nal-G)] (cyclo([2Nal]G[dY][Gly(N-(CH2)6NH2)]R)) | IC50 (Gly analogue): 104 nM
4.2 ± 1.4 |  | C[C@@H]1C(=O)N[C@@H](CCCNC(=N)N)C(=O)N[C@@H](Cc2ccc3ccccc3c2)C(=O)NCC(=O)N[C@H](Cc2ccc(O)cc2)C(=O)N1CCCCCCNCc1ccccc1 [ya(Hex, Bz) RNalG, cyclo(-D-Tyr-(α-6-aminohexyl, benzyl)-D-Ala-R-Nal-G)] (cyclo([2Nal]G[dY][X4]R)) | 
 | 34.2 ± 9.3 | C[C@@H]1C(=O)N[C@@H](CCCNC(=N)N)C(=O)N[C@@H](Cc2ccc3ccccc3c2)C(=O)NCC(=O)N[C@H](Cc2ccc(O)cc2)C(=O)N1CCCCCNC(=O)c1ccc(F)cc1 [ya(Pent, FBz)RNalG, cyclo(-D-Tyr-(α-5-aminopentyl, 4-fluorobenzoic acid)-D-Ala-R-Nal-G)] (cyclo([2Nal]G[dY][X14]R)) | 
21.4 ± 5.8 |  | C[C@@H]1C(=O)N[C@@H](CCCNC(=N)N)C(=O)N[C@@H](Cc2ccc3ccccc3c2)C(=O)NCC(=O)N[C@H](Cc2ccc(O)cc2)C(=O)N1CCCCCCNC(=O)c1ccc(F)cc1 [ya(Hex, FBz) RNalG, cyclo(-D-Tyr-(α-6-aminohexyl, 4-fluorobenzoic acid)-D-Ala-R-Nal-G)] (cyclo([2Nal]G[dY][X8]R)) | 
 | 0.9 ± 0.1 | C[C@@H]1C(=O)N[C@@H](CCCNC(=N)N)C(=O)N[C@@H](Cc2ccc3ccccc3c2)C(=O)NCC(=O)N[C@H](Cc2ccc(O)cc2)C(=O)N1CCCCN [ya(But)RNalG, cyclo(-D-Tyr-(α-4-aminobutyl)-D-Ala-R-Nal-G)] (cyclo([2Nal]G[dY][X11]R)) | 
 |  | C[C@@H]1C(=O)N[C@@H](CCCNC(=N)N)C(=O)N[C@@H](Cc2ccc3ccccc3c2)C(=O)NCC(=O)N[C@H](Cc2ccc(O)cc2)C(=O)N1CCCCCCNC(=O)CCC(=O)NCCCCCCN1C(=O)[C@@H](Cc2ccc(O)cc2)NC(=O)CNC(=O)[C@H](Cc2ccc3ccccc3c2)NC(=O)[C@H](CCCNC(=N)N)NC(=O)[C@H]1C [Dimer 4, ya(Hex)RNalG butan-1,4-diacid dimer] (I: cyclo([2Nal]G[dY][X3]R) / II: cyclo([2Nal]G[dY][X3]R); linker I:4-II:4 via Suc) | IC50 (dimers): 5.5 ± 1.4 nM
